Here are results for two compounds from article PMC10748125 (Viruses, 2023).

Data set [1] can be described thus: Cytotoxicity assay (CCK-8), Caco-2. It counts as cell-based. The note with it: human, CCK-8, 48 h treatment.
For the next data set, the system named is HCoV-229E. In words: Viral yield reduction (VYR) assay, HCoV-229E in MRC-5 cells. The note with it: read-out: EC50 (μM) HCoV-229E, progeny virus 24 h post-infection, mean ± SD.
Data set [2] deals with HCoV-NL63. Nature of the data set: Time-of-addition assay. It is filed as cell-based.
In another data set the test system is MRC-5 cells. The following applies: human.
Data set [3] is described as follows: Cytotoxicity assay (CCK-8), NCTC clone 929. It counts as cell-based, murine. The following applies: mouse, NCTC clone 929 cells; Figure 1C MHV plot label; read-out: NCTC clone CC50 (label inside plot).
The subject of a further data set is HCoV-OC43. In words: Viral yield reduction (VYR) assay, HCoV-OC43 in HCT-8 cells. The following applies: read-out: EC50 (μM) HCoV-OC43, progeny virus 24 h post-infection, mean ± SD.
A short description of data set [4]: Cytotoxicity assay (CCK-8), CRFK. It counts as cell-based, feline. The following applies: cat, CRFK cells; Figure 1C CCoV plot label; read-out: CRFK CC50 (label inside plot).
The nature of data set [5]: Cytotoxicity assay (CCK-8), HCT-8. It counts as cell-based. The following applies: human, HCT-8 cells; CCK-8, 48 h treatment.
In data set [6] the test system is HCoV-NL63. Nature of the data set: Viral yield reduction (VYR) assay, HCoV-NL63 in Caco-2 cells. The note with it: read-out: EC50 (μM) HCoV-NL63, progeny virus 24 h post-infection, mean ± SD.
The next data set is described as follows: in vitro. The following applies: human.
Setting [7] is: 2 μM VV116, 2 μM Remdesivir, 300 μg/mL heparan sulfate, MOI 0.1, 24 h post-infection.

For orientation: EC50 means the midpoint of the concentration-response curve. On to `CCC(CC)COC(=O)[C@H](C)N[P@](=O)(OC[C@H]1O[C@@](C#N)(c2ccc3c(N)ncnn23)[C@H](O)[C@@H]1O)Oc1ccccc1` [Remdesivir], for which the CC50 at 48 h in data set [1], in data set [3], in data set [4] and in data set [5] was greater than 100 µM in each case. The EC50 was 0.056 ± 0.002 µM in the data set on HCoV-229E, 0.069 ± 0.001 µM in the data set on HCoV-OC43 and 0.495 ± 0.01 µM in the data set with HCoV-NL63 [6]. Also, in the data set on HCoV-NL63 [2] (2 μM Remdesivir, compared with VV116), the Time-of-addition result overall is “comparable to that obtained for VV116”. Further, the CC50 in the data set on MRC-5 cells and in the data set “in vitro” was greater than 100 µM each time.

Take heparan sulfate: in the data set with HCoV-NL63 [2] (setting [7]), the “Antiviral activity when added at the post-entry phase (NP Western blot)” value is on record as “abolished” and the “Antiviral activity when added during the entry phase (NP Western blot)” value is “demonstrated antiviral activity”.
